Molecules are shown by their SMILES. Where two headings read alike, the source gives them in different places. Some results are limits rather than exact numbers.

Data set [1] has as its system A549. The conditions noted are these: A549, MTT assay, 96 h; cited from earlier work. (In general: Tetrazolium assays rely on reduction of a dye to a coloured formazan, in cell work by metabolically active cells.)
Data set [2] deals with SW480. The conditions noted are these: SW480, MTT assay, 96 h; cited from earlier work.
Data set [3] has as its system CH1/PA‐1. Particulars: CH1/PA‐1, MTT assay, 96 h; cited from earlier work.
Data set [4] concerns human cancer cell lines CH1/PA‐1, SW480, A549. Further details: method as in PMID 26365319. Particulars: cited from earlier work.
Data set [5] is described as follows: UV/Vis stability in aqueous solution. The conditions noted are these: in PBS, rank among osmium complexes. It counts as physicochemical. On the procedure:
In order to investigate complex stabilities, UV/Vis spectrophotometry was conducted for all complexes. […] This process is fastest for complex 4 b* followed by complexes 4 a* and finally 4 c* in PBS. Decomposition of the osmium compounds was slightly slower in pure water (Figure 5).
UV/Vis spectra were recorded using a Hewlett Packard 8452A diode‐array spectrophotometer between 200–800 nm. The path length (l) was either 1 or 2 cm. UV/Vis spectra were recorded to confirm complex stability in aqueous systems and over a pH range 5.8–7.9.

For data set [6], the system named is SW480. The experiment in a line: MTT cytotoxicity assay, monolayer culture. It counts as cell-based, human.
Data set [7] relates to CH1/PA‐1. The experiment in a line: MTT cytotoxicity assay, monolayer culture. Particulars: CH1/PA‐1, MTT assay, exposure time 96 h, means ± SDs. Type of data set: cell-based, human.
The subject of data set [8] is A549. Briefly: MTT cytotoxicity assay, monolayer culture. Particulars: exposure time 96 h, means ± SDs. It counts as cell-based, human.
The conditions of data set [9]: pH 5.8.
Procedure: In order to investigate a possible pH influence on complex stability and to gather further insights into the instability of the osmium complexes, UHPLC kinetic measurements were carried out at pH values of 5.8, 6.2, 6.7, 7.2 and 7.9 in phosphate buffered solution via UHPLC. […] Due to pump pressure fluctuations the retention times tended to shift ±0.18 min.
Stock solutions containing the desired complex in DMSO (5 mM) were diluted with phosphate buffer to a final concentration of 50 μM compound in 1 % DMSO/20 mM buffer and directly analyzed via gradient UHPLC runs over 24 h. Phosphate buffers at pH 5.8, 6.2, 6.7, 7.2 and 7.9 were employed to ensure a constant pH value. The instrument was set to 0.6 mL min^−1 flow rate, 37 °C sampler temperature, 25 °C column compartment, 225 nm detection wavelength, 95 % MeOH in MiliQ water +0.1 % formic acid over 7.0 min.
The test system of data set [10] is human cancer cell lines CH1/PA‐1, SW480, A549. Particulars: for IC50 values, in words: tested cancer cell lines.
Procedure: Cytotoxicity of the compounds in monolayer cultures was determined by the colorimetric MTT assay (MTT=3‐(4,5‐dimethyl‐2‐thiazolyl)‐2,5‐diphenyl‐2H‐tetrazolium bromide). 1×10^3 CH1/PA‐1, 2×10^3 SW480 and 3×10^3 A549 cells were seeded in 100 μL supplemented MEM per well into 96‐well flat‐bottom microculture plates. […] After 96 h, the drug‐containing medium was replaced with 100 μL of RPMI 1640/MTT mixture [6 parts of RPMI 1640 medium (supplemented with 10 % heat‐inactivated fetal bovine serum and 4 mM L‐glutamine), 1 part of MTT solution in phosphate‐buffered saline (5 mg mL^−1)]. After incubation for 4 h, the mixture was replaced with 150 μL DMSO per well to dissolve the formazan product formed by viable cells. Optical densities at 550 nm (and at a reference wavelength of 690 nm) were measured with a microplate reader (ELx808, Bio‐Tek).
For data set [11] the following is noted: 1H NMR kinetics in D2O/1 % [D6]DMSO, repeated 1:1 dilution.
Procedure: In order to elucidate the fate of complex 4 c* and a possible concentration effect on its stability, additional NMR and MS experiments were carried out. […] Consequently, the sample was diluted 1:1 (3 mg mL^−1) and kinetics were measured over 24 h a second time. This step was repeated six times in total (after 24, 48, 72, 96, 168, and 192 h; resulting in a final concentration of 176 μM). […] It was impossible to measure 2D NMR sets throughout the experiment, due to the low sample concentration.
For another data set, the system named is HCT‐116. Particulars: HCT‐116 multicellular spheroids, 96 h drug exposure. As for the experimental part:
(§1) A549, CH1/PA‐1 and SW480 cells were grown in MEM supplemented with 10 % fetal calf serum (FCS; from Biowest), 1 mM sodium pyruvate, 4 mM L‐glutamine and 1 % v/v nonessential amino acids (from 100×solution) and L‐glutamine. HCT‐116 cells were maintained in McCoy's 5a medium supplemented with 10 % FCS and L‐glutamine. Adherent monolayer cultures were grown in 75 cm^2 flasks. For spheroid culture, A549, CH1/PA‐1 and HCT‐116 cells were harvested from culture flasks by trypsinization, resuspended in their respective supplemented medium and seeded in ultra‐low attachment round‐bottom 96‐well plates (Corning Costar) at a density of 500 viable cells per well. Plates were incubated for 96 h to allow spheroid formation prior to use for the tests. All cultures were incubated in a humidified incubator at 37 °C with 5 % CO2.
(§2) Cytotoxicity in multicellular spheroids was determined by the fluorimetric resazurin assay. […] After incubation for 96 h, 20 μL of a 440 μM resazurin sodium salt solution in PBS were added to each well, and the plates were incubated for further 16 h. Fluorescence was measured with a Synergy HT reader (BioTek) with an excitation wavelength of 530 nm and emission wavelength of 590 nm. For both assays, at least three independent experiments (or two in case of poor activity) were performed, each with triplicates per concentration level, and the 50 % inhibitory concentrations (IC50) relative to untreated controls were interpolated from concentration‐effect curves.

In data set [12] the test system is CH1/PA‐1. Particulars: CH1/PA‐1 multicellular spheroids, 96 h drug exposure. On the procedure:
as §1, §2

Data set [13] relates to A549. Particulars: A549 multicellular spheroids, 96 h drug exposure. As for the experimental part: as §1, §2
The conditions of data set [14]: pH 7.2. On the procedure: Stock solutions containing the desired complex in DMSO (5 mM) were diluted with phosphate buffer (pH 7.2) to a final concentration of […] compound in 1 % DMSO/20 mM buffer and directly analyzed by four different isocratic UHPLC runs (Δ=5 %). The lipophilicity parameters logkw and lipophilicity indices φ0 were calculated according to literature.7, 37

Data set [15] deals with SW480. The experiment in a line: Cell cycle distribution, flow cytometry with propidium iodide. It counts as cell-based, human. Particulars: for Cell cycle distribution G1, % / Cell cycle distribution G2/M, % / Cell cycle distribution S, %: 24 h, mean ± SD; for Relative change in cell cycle distribution G1, % / Relative change in cell cycle distribution G2/M, % / Relative change in cell cycle distribution S, %: difference to untreated control. Summed up: (§3)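 CH1/PA-1 and SW480 cells were allowed to attach for 24 h, then exposed continuously to compounds for 24 h at 37 °C. Nuclei were stained overnight at 4 °C with propidium iodide (50 μg mL^−1) in Triton/citrate buffer. 5×10^3 cells were analysed by flow cytometry, with G1/S/G2/M fractions fitted by the Watson Pragmatic model.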
In general terms: Flow cytometry measures light scatter and fluorescence of single cells or particles in a stream.

In data set [16] the test system is CH1/PA‐1. The data set is described as above. It counts as cell-based, human. The conditions noted are these: for Cell cycle distribution G1, % / Cell cycle distribution G2/M, % / Cell cycle distribution S, %: 24 h, mean ± SD; for Relative change in cell cycle distribution G1, % / Relative change in cell cycle distribution G2/M, % / Relative change in cell cycle distribution S, %: difference to untreated control. The method, boiled down:
as §3

For data set [17], the system named is autochthonous colon cancer. Further details: method as in earlier work. The conditions noted are these: rat model, well tolerable dose, cited from earlier work.
Where [18] appears, read: SW480, MTT assay, exposure time 96 h, means ± SDs.

With `[Cl][Ru-]([Cl])([Cl])[Cl].[Na+].c1ccc2[nH]ncc2c1.c1ccc2[nH]ncc2c1` [BOLD‐100], the half-maximal inhibitory concentration (IC50) – broadly, the concentration that gives 50% inhibition – with A549 [1] is 156000 ± 11000 nM; with SW480 [2], 62000 ± 9000 nM; in the data set on CH1/PA‐1 [3], 50000 ± 6000 nM.

In the case of `N.N.[Cl][Pt][Cl]` [Cisplatin], the half-maximal inhibitory concentration (IC50) in the data set on A549 [1] was 1300 ± 400 nM; in the data set with SW480 [2], 3500 ± 300 nM; with CH1/PA‐1 [3] it was 160 ± 30 nM. Also, in [4], the “activity in CH1/PA‐1 cells relative to SW480 cells” value is “up to 22 times”.

On to `Cc1c([O-])c(=S)ccn1-c1ccccc1.Cc1ccc(C(C)C)cc1.[Cl-].[Os+2]` [Compound 4 b, Chlorido[2‐methyl‐3‐(oxo‐κO)‐1‐phenylpyridine‐4(1H)‐thionato‐κS](η^6‐p‐cymene)osmium(II)], for which the “decomposition speed by UV/Vis” value in data set [5] is listed as “fastest”. Further, the IC50 is 5800 ± 300 nM in the data set with SW480 [6] (setting [18]), 1130 ± 30 nM in the data set with CH1/PA‐1 [7] and 2200 ± 1100 nM with A549 [8].

For the compound `Cc1c([O-])c(=S)ccn1Cc1ccccc1.Cc1ccc(C(C)C)cc1.[Cl-].[Os+2]` [Compound 4 c, Chlorido[1‐benzyl‐2‐methyl‐3‐(oxo‐κO)‐pyridine‐4(1H)‐thionato‐κS](η^6‐p‐cymene)osmium(II)], the “stability by UHPLC” value in [9] is reported as “stable over 24 h”. Also, in data set [10], the “IC50 values, in words” value is recorded as “low micromolar range”. For the same compound, the “dilution at which formation of a second species became apparent” value in data set [11] was determined as 375 µg/mL. Besides, the IC50 came out at 5600 ± 700 nM in the data set with SW480 [6] (setting [18]), 1300 ± 200 nM in the data set with CH1/PA‐1 [7] and 2200 ± 1200 nM in the data set with A549 [8].

Regarding `CC1=C2[O][Ir+]([Cl])[S]=C2C=CN1Cc1ccccc1.Cc1c(C)c(C)[c-](C)c1C` [Compound 6 c, Chlorido[1‐benzyl‐2‐methyl‐3‐oxo‐κO‐pyridine‐4(1H)‐thionato‐κS](η^5‐1,2,3,4,5‐pentamethylcyclopentadienyl)iridium(III)], the half-maximal inhibitory concentration (IC50) was 78000 ± 2000 nM with HCT‐116; 114000 ± 3000 nM in the data set with CH1/PA‐1 [12]; 136000 ± 5000 nM with A549 [13]; 540 ± 70 nM in the data set on SW480 [6] (setting [18]); 540 ± 70 nM in the data set on SW480 [6] (SW480, as listed in Table 3); 570 ± 50 nM in the data set with CH1/PA‐1 [7]. In the data set on A549 [8], this compound showed a 50% inhibitory concentration (IC50) of 1100 ± 200 nM. In the data set on SW480 cells, the “cellular concentration relative to 3 c” value is recorded as 11 times. Further, in the data set on SW480 cells, the “cellular concentration relative to 5 c” value is 2 times. The Cellular accumulation in the data set with SW480 cells (ICP‐MS, 2 h exposure, 50 μM) was 1680±333 fg/cell. Also, the “cytotoxicity relative to 3 c and 4 c” value in [10] was “up to 20 times”. Also, the “IC50 values, in words” value in [10] was “high nanomolar range”. In data set [14], the “φ0 (chromatographic lipophilicity index)” value came to 6.22. In addition, the “Cell cycle distribution G1, %” value was found to be 40 ± 5% with SW480 [15] (SW480, 0.75 µM); 39 ± 13% in the data set on SW480 [15] (SW480, 1.25 µM); 43 ± 2% in the data set with SW480 [15] (SW480, 2.5 µM); 30 ± 4% in the data set with CH1/PA‐1 [16] (CH1/PA-1, 0.75 µM); 30 ± 8% in the data set with CH1/PA‐1 [16] (CH1/PA-1, 1.25 µM); 27 ± 4% in the data set with CH1/PA‐1 [16] (CH1/PA-1, 2.5 µM). Further, the “Cell cycle distribution G2/M, %” value is listed as 24 ± 5% in the data set on SW480 [15] (SW480, 0.75 µM); 22 ± 3% with SW480 [15] (SW480, 1.25 µM); 19 ± 3% in the data set on SW480 [15] (SW480, 2.5 µM); 32 ± 4% with CH1/PA‐1 [16] (CH1/PA-1, 0.75 µM); 33 ± 4% with CH1/PA‐1 [16] (CH1/PA-1, 1.25 µM); 34 ± 3% in the data set on CH1/PA‐1 [16] (CH1/PA-1, 2.5 µM). Also, the “Cell cycle distribution S, %” value with SW480 [15] (SW480, 0.75 µM) was 36 ± 2%; in the data set with SW480 [15] (SW480, 1.25 µM), 38 ± 8%; in the data set with SW480 [15] (SW480, 2.5 µM), 38 ± 5%; in the data set with CH1/PA‐1 [16] (CH1/PA-1, 0.75 µM), 38 ± 3%; in the data set on CH1/PA‐1 [16] (CH1/PA-1, 1.25 µM), 37 ± 6%; in the data set on CH1/PA‐1 [16] (CH1/PA-1, 2.5 µM) it was 39 ± 4%. Further, the “Relative change in cell cycle distribution G1, %” value is listed as -8% in the data set on SW480 [15] (SW480, 0.75 µM); -9% in the data set on SW480 [15] (SW480, 1.25 µM); -5% in the data set on SW480 [15] (SW480, 2.5 µM); -10% in the data set with CH1/PA‐1 [16] (CH1/PA-1, 0.75 µM); -10% in the data set with CH1/PA‐1 [16] (CH1/PA-1, 1.25 µM); -13% with CH1/PA‐1 [16] (CH1/PA-1, 2.5 µM). In addition, the “Relative change in cell cycle distribution G2/M, %” value is given as 5% with SW480 [15] (SW480, 0.75 µM); 3% in the data set with SW480 [15] (SW480, 1.25 µM); 0% in the data set on SW480 [15] (SW480, 2.5 µM); 8% in the data set with CH1/PA‐1 [16] (CH1/PA-1, 0.75 µM); 9% in the data set on CH1/PA‐1 [16] (CH1/PA-1, 1.25 µM); 10% in the data set on CH1/PA‐1 [16] (CH1/PA-1, 2.5 µM). The “Relative change in cell cycle distribution S, %” value is 3% with SW480 [15] (SW480, 0.75 µM); 5% in the data set on SW480 [15] (SW480, 1.25 µM); 5% in the data set with SW480 [15] (SW480, 2.5 µM); 2% in the data set with CH1/PA‐1 [16] (CH1/PA-1, 0.75 µM); 1% in the data set on CH1/PA‐1 [16] (CH1/PA-1, 1.25 µM); 3% in the data set with CH1/PA‐1 [16] (CH1/PA-1, 2.5 µM). Further, the “decrease in G1 phase” value in the data set on SW480 [15] (SW480 cells, at applicable concentrations) is recorded as less than 9%; in the data set with CH1/PA‐1 [16] (CH1/PA‐1 cells, 2.5 μM), 13%.

Regarding `[Cl-].[Cl-].[Cl-].[Cl-].[Ru+3].c1ccc2[nH][nH+]cc2c1.c1ccc2[nH]ncc2c1.c1ccc2[nH]ncc2c1` [KP1019, indazolium trans‐[tetrachlorido‐bis(1H‐indazole)ruthenate(III)]], in data set [17] (autochthonous colon cancer), the “reduction of tumor volume” value is listed as “up to 95%”. The weight loss result in data set [17] is “no more than 6%”.

These data come from PMC7217150, “Synthesis, Modification, and Biological Evaluation of a Library of Novel Water‐Soluble Thiopyridone‐Based Organometallic Complexes and Their Unexpected (Biological) Behavior” (Chemistry (Weinheim an Der Bergstrasse, Germany), 2020).
